Measurements taken from patent US10487091B2, “Activators of autophagic flux and phospholipase D and clearance of protein aggregates including tau and treatment of proteinopathies” (THE TRUSTEES OF COLUMBIA UNIVERSITY IN THE CITY OF NEW YORK, priority 2015, dated 2019).
Where two headings read alike, the source gives them in different places.

Tests used:
Tau/aggregate = Tau/aggregate inhibition in HEK 293 cells expressing mKate2-tagged Tau; format: cell-based, Human; settings: Homo sapiens, HEK293
Experimental: (§1) 1) HEK cells with tet-regulated expression of mKate2 tagged Tau were grown in DMEM medium (Dulbecco's Modified Eagle's Medium) containing 0.5 μg/mL doxycycline (Dox)(MP-Bio#198955), after 3-5 days Dox was removed by washing the cells twice with sterile phosphate buffered saline (PBS; Invitrogen#14190-144), cells were left in DMEM without Dox for 72 hours (to further clear remaining Dox in cells).
(§2) The test compounds (along with CytoID™ dye and Hoechst stain) were added to the cells and incubated for 3 hours. Reference compounds were also used in each plate, Rapamycin was used for autophagy induction and chloroquine was used for lysosomal inhibition. After 3 hours test compound was aspirated off and kept. Cells were then washed and read using a fluorescence plate reader. Hoescht, Cyto-ID™ and mKate2 were measured using 3 distinct wavelengths on the plate reader. The Hoescht measurement allowed normalisation of results across wells. After reading, test compound was re-added and the cells are left for a further 21 hours. At the 24 hour time point cells were once again washed and plates read using the fluorescence plate reader.
(§3) Proteostat™ assay was used to detect aggresomes via measurement of p62. Aggresomes are inclusion bodies that form when the ubiquitin-proteasome machinery is overwhelmed with aggregation-prone proteins. Typically, an aggresome forms in response to some cellular stress, such as hyperthermia, viral infection, or exposure to reactive oxygen species. Aggresomes may provide a cytoprotective function by sequestering the toxic, aggregated proteins and may also facilitate their ultimate elimination from cells by autophagy. Following the final plate read described in the Cyto-ID™ assay described above, Proteostat™ detection reagent was added to every well and the plate was incubated for 15 minutes. Following this incubation, the plate was read by fluorescence plate reader at the specified wavelength. After this plate read, the cells were fixed by incubating with warm paraformaldehyde for 8 minutes. The fixed cells were then read by plate reader as before.
Western blot assays were performed to determine protein changes in Tau and p62. Cells were cultured as above and incubated with test compounds for 24 h. Following test compound incubation, the test compound was aspirated off and cells were washed before harvesting. Cells were spun at a low speed and supernatant was aspirated to leave the cell pellet. The cell pellet was then homogenized in buffer, centrifuged at high speed, and the supernatant aspirated and further separated into total fraction and aggregate fraction allowing quantification of soluble and insoluble proteins. Western blots were run on the samples, gels transferred to nitrocellulose and incubated with antibodies for Tau and p62. After incubation with secondary antibodies for detection, the bands of protein were quantified by chemiluminescence.

Autophagy Markers = experiment: Autophagy markers (Cyto-ID assay) in HEK 293 cells; format: cell-based, Human
Experimental: The dye used in the kit prevents its accumulation within lysosomes, but enables labelling of vacuoles associated with the autophagy pathway using the LC3 biomarker.
as §2
2) Test samples were prepared in warm FluoroBrite™ DMEM and with 10% FBS and 1% NEAA (FB-DMEM). Rapamycin 200 nM (Enzo #BML-A275-0025) was used for autophagy induction and […] chloroquine was used for lysosomal inhibition (bafilomycin or similar compounds were not used as they give a false negative result in the assay). Dimethyl Sulfoxide 1:1000 (DMSO; Fisher #BP231-100) was used as control. Autophagosome marker Cyto ID™ (1:500; Enzo #ENZ-51031-k200) and Hoechst (1:200) was added to these test sample preparations before treating the cells.
7) At 24 hours post reaction all medium was aspirated and the plate was washed 3 times with warm FB-DMEM, and read again for Hoescht (Ex=355 nm Em=446 nm), CytoID™ (Ex=463 nm; Em=534 nm) and mKate2 (Ex=575 nm; Em=630 nm) in 80 μl of FB-DMEM.

[1] = Cytotoxicity LC50 (XTT assay for cell viability); format: cell-based; settings: human, transfected HEK 293 cells that express mKate2-tagged Tau;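 also: cells carry doxycycline-repressible Tau, induced by withdrawing doxycycline for 72 h before compound exposure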
Experimental: The cells were grown in the presence of the antibiotic doxycycline. When the antibiotic is removed the cells produce Tau (which can be quantified), thus allowing the test compounds' effects on Tau's production to be compared. Doxycycline was removed for 72 hours prior to exposure to the test compounds to promote sufficient Tau production. Cells were subsequently plated into plates for each of the assays described below.

[2] = Photodiode array (PDA) detection of compound in mouse brain; format: in vivo; settings: FIG. 1
Excerpt: FIG. 1 is a graph showing a photodiode array (PDA) spectrum of WHYKD8 in mouse brain.
A photodiode array (PDA) was used to detect WHYKD8 in mouse brain (FIG. 1).

phospholipase D (PLD) = experiment: PLD assay (conversion of phospholipids to phosphatidylethanols in presence of ethanol, LC/MS); format: cell-based, mice; settings: PLD activation, fold; 24 hours incubation
Experimental: Cells were incubated with test compound for 24 hours. 25 minutes prior to harvest at 24 hours, 3% ethanol solution was added to the wells to catalyze cleavage of the phospholipid. Cells were then placed on ice, washed and harvested. The harvested cells were centrifuged and the supernatant was aspirated and the pellet kept. The pellet was resuspended and chloroform/methanol lipid extraction was performed. The sample was centrifuged and the organic layer was separated, dried under nitrogen and stored at −80° C. On the day of analysis, samples were resuspended and analysed by LC/MS. All phosphatidylethanol species (PEtOH32-40:0-6:16/18:0/1) were combined together and represented as total lipid content (all lipid species).
(§4) The assay was run in e18 primary cortical neurons from PLD1 or PLD2 KO mice cultured for 14 days. Alternatively, the assay can be run in the cells described above in the presence of excess PLD1 or PLD2 inhibitor to preclude that particular action from contributing to the effect of the drug.
(§5) 4) On the day of experiment, cells were washed in warmed HBSS twice before media containing test compound (n=3 per compound per dose), inhibitor (355 nM ML298 or 50 nM VU0150669), or vehicle are added to the wells (1.5 mL in 6 well, 600 μL in 12 well). Plates were incubated for 24 hours at 37° C. with 5% CO2.
5) 25 minutes prior to harvest, a 165 μL of a 3% ethanol solution was added to each well.
PLD activation converts phospholipids to phosphatidylethanols in the presence of ethanol. […] FIPI is a non-competitive inhibitor of PLD activity and was used as a negative control.

PLD2 = biological target: T1, PLD2 (Homo sapiens, UniProt O14939); experiment: PLD2 activity: Proteostat/mKate2 with PLD1 inhibitor VU0150669; format: cell-based; settings: for EC50: with PLD1 inhibitor VU0150669, 50 nM
T1 construct: endogenous in cells; host or cells: HEK 293 (Jump-In) cells with tet-regulated mKate2-Tau
T1 sequence (O14939 whole entry): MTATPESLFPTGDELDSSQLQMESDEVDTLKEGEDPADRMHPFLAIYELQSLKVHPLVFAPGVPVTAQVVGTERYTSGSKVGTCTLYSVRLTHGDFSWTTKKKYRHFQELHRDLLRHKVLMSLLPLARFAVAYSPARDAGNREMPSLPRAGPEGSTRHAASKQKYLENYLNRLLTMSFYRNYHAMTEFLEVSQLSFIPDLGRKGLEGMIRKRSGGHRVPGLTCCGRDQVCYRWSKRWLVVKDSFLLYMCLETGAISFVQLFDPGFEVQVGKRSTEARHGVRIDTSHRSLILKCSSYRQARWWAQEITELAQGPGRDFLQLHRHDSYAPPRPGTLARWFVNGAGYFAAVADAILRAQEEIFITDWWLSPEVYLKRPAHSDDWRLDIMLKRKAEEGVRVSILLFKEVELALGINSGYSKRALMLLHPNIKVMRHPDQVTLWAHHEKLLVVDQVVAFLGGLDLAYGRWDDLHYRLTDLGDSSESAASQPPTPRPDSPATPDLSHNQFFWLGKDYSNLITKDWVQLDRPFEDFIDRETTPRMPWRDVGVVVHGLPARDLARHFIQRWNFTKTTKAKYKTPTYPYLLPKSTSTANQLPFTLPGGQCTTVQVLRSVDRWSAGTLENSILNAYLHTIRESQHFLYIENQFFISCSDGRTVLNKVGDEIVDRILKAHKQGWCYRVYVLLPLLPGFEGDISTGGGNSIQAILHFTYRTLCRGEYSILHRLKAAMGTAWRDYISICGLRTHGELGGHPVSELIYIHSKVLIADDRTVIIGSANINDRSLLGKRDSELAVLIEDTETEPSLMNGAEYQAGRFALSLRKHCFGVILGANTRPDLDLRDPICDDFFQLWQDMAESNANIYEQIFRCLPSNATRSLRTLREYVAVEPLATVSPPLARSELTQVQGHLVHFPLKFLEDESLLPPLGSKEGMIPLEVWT
Experimental: as §4, §5

aggregates (Proteostat) = experiment: Proteostat protein aggregation assay EC50; format: cell-based; settings: Homo sapiens; 50% reduction of Proteostat levels (fluorescent marker of aggregates)
Excerpt: as §3
8) Detection solution was prepared by adding 10 μl Proteostat™ detection reagent (ENZ-51023-KP002) and 200 μL of 10× assay buffer into 1790 μL water and mixing well.
9) 20 μL was added per well (each well had 80 μl of Fluorobrite™ media with no FBS) and incubated in the dark for 15 min at room temperature.
10) Fluorescence for Proteostat™ (Ex=550 nm; Em=600 nm) was then read.

PLD1 = biological target: T2, PLD1 (Homo sapiens, UniProt Q13393); experiment: PLD1 activity: Proteostat/mKate2 with PLD2 inhibitor ML298; format: cell-based; settings: with ML298, PLD2 inhibitor (355 nM)
T2 construct: endogenous in cells; host or cells: HEK 293 (Jump-In) cells with tet-regulated mKate2-Tau
T2 sequence (Q13393 1-1074): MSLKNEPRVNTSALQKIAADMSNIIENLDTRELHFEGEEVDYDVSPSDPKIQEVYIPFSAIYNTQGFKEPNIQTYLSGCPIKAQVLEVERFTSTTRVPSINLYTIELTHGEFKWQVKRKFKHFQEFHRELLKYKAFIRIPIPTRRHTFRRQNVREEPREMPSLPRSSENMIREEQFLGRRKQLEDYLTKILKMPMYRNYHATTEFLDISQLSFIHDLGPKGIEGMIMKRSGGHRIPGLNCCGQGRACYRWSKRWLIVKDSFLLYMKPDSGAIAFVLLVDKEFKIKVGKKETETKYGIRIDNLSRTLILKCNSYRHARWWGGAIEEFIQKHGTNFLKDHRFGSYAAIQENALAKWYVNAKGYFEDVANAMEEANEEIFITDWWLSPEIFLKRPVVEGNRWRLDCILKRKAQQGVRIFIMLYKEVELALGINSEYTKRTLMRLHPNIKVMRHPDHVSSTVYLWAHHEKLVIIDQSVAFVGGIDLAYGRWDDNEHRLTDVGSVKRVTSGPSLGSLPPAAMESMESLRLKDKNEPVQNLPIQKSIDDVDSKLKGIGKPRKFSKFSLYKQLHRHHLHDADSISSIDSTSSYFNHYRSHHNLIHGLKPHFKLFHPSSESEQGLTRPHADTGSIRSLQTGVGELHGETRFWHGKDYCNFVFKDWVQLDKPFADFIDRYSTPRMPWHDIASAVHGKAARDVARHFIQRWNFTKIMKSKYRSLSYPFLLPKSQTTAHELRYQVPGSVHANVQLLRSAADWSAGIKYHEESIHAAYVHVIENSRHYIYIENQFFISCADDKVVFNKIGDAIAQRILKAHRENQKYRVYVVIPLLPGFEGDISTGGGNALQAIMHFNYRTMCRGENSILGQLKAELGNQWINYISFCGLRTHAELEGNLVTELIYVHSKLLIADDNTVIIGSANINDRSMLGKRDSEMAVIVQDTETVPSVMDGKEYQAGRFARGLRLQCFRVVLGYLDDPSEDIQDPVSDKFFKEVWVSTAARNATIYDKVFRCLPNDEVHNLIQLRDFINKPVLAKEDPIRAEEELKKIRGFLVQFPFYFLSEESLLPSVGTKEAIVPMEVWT
Experimental: as §4, §5

mKate2 tagged Tau = experiment: Tau-mKate2 fluorescence EC50; format: cell-based; settings: Homo sapiens; 50% reduction of mKate2 fluorescence (tau tag)
Experimental: as §1
as §2, with “After 3 hours test compound was aspirated off and kept.” left out, “The Hoescht measurement allowed normalisation of results across wells.” left out
5) Treatment plate was then washed quickly 3 times with warm FB-DMEM (100 μL/well). […] At this point, the plate was ready for reading. See details in Reading Plate section. Hoescht was read at Excitation wavelength (Ex)=355 nm & Emission wavelength (Em)=446 nm. mKate2 was read at Ex=575 nm & Em=630 nm. Cyto-ID™ was read at Ex=463 nm & Em=534 nm. […]

| SMILES | inhibition at 1 µM (Tau/aggregate) | % Increase Autophagy Markers (Autophagy Markers) | CC50 ([1]; read-out: Cyto-toxixity LC50) | detection in mouse brain [2] | PLD (phospholipase D (PLD)) | Proteostat PLD2/PLD1 ratio (PLD2; Proteostat readout) | mKate2 PLD2/PLD1 ratio (PLD2; mKate2 readout) | EC50 (PLD2; read-out: Proteostat (nM) using pharmacological inhibitor PLD2) | EC50 (PLD2; read-out: mKate2 (nM) using pharmacological inhibitor PLD2) | EC50 (aggregates (Proteostat)) | EC50 (PLD1; read-out: Proteostat (nM) using pharmacological inhibitor PLD1) | EC50 (PLD1; read-out: mKate2 (nM) using pharmacological inhibitor PLD1) | CC50 ([1]; XTT assay, 200 = upper concentration limit tested, read-out: LC50 (the source's name)) | EC50 (mKate2 tagged Tau) |
| --- | --- | --- | --- | --- | --- | --- | --- | --- | --- | --- | --- | --- | --- | --- |
| Oc1ccc(CCNc2ncnc3ccc(Cl)cc23)cc1 [WHYKD8] | 30% | 25% | > 100000 nM | readily detected | 2.8X | – | – | – | – | – | – | – | – | – |
| c1cnc2c(SC3CCCC3)ncnc2c1 [WHYKD36] | – | – | – | – | – | 1.5 | 1.7 | 604 nM | 2280 nM | 383 nM | 394 nM | 1330 nM | 67000 nM | 1040 nM |
